Data taken from patent US7973024B2, “24-sulfoximine vitamin D3 compounds” (Cyctochroma Inc., priority 2002, dated 2011).

Experiments:
VDR = molecular target: T1, VDR (Homo sapiens, UniProt P11473); assay: VDR binding assay; settings: B50: displacement of 50 percent [3H]-1,25(OH)2D3 from human recombinant VDR
T1 construct: purchased Biomol
T1 sequence (P11473 1-427): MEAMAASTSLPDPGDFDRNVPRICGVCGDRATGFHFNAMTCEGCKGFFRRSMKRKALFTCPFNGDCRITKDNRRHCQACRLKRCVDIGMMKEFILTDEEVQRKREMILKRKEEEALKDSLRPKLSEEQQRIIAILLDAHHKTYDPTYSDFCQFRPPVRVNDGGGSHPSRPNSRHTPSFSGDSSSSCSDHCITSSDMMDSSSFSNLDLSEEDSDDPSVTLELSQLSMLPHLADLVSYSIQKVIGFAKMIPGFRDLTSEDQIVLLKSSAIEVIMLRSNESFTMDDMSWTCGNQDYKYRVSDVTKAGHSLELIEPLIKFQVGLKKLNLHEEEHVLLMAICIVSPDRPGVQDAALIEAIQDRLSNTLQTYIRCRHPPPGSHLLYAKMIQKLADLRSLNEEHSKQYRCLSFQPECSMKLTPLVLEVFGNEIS
Protocol: 1. VDR 9.4 pmol/μl (human, recombinant, Biomol).
4. TEK300 • Tris-HCI 50 mM • EDTA 1.5 mM • KCI 300 mM Adjust pH to 7.4 (25° C.)
3. Preparation of 1.25(OH)2D3 and test compounds in ethanol
1 μl stock VDR in 2.5 ml TEDK300/Gelatin solution (500 μl/tube), (keep on ice)
• Label tubes according to the following chart, each in triplicate:
• Mixed all tubes via vortex and incubated at room temperature for 1 hour. Added 10 μL of 3H-1,25(OH)2D3 Working Dilution, mixed by vortex and incubated at room temperature for 1 hour 2. Sample processing • Thirty minutes before addition, put Charcoal/Dextran Solution on ice with continuous mixing. Added […] of Charcoal/Dextran Solution to each tube, mixed well and incubated on ice for 30 minutes. Centrifuged @ 2000 rpm for 10 minutes at 4° C. 3. Counting • Pipetted 100 μL of the upper, aqueous phase to a 24 well scintillation counting plate and added 600 μL scintillation fluid per well, covered and mixed well. Counted the plate using a scintillation counter for 5 min/sample. (iv) Calculations: • The amount of 1,25(OH)2D3 to displace 50 percent [^3H]-1,25(OH)2D3 from VDR was calculated as B50 for 1,25(OH)2D3. The VDR binding of other compounds was calculated as B50 relative to a value of 1 for 1,25(OH)2D3.

CYP24 = molecular target: T2, CYP24 (Homo sapiens, UniProt Q07973); assay: CYP24 enzyme assay (induced HPK1A-ras cells); assay type: cell-based; settings: HPK1A-ras cells induced with 1,25(OH)2D3; [3H]-1,25(OH)2D3 substrate, 2 hour
T2 construct: expressed in transfected cells
T2 sequence (Q07973 36-514): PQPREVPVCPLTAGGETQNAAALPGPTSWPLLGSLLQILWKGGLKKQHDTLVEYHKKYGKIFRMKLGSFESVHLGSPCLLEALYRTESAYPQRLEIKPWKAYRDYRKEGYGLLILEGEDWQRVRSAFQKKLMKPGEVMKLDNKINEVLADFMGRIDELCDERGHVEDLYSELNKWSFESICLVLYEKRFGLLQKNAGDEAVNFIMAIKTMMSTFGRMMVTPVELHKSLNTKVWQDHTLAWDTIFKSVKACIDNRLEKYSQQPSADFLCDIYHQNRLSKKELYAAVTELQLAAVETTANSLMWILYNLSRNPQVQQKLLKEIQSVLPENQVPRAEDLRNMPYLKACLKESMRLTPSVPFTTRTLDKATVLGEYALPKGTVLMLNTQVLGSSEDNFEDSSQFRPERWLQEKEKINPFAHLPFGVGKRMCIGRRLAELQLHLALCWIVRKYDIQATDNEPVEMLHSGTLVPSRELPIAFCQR
Protocol: 1.25(OH)2D3 10^−5 M (Sigma, St. Louis, Mo.);
Preparation of 10^−5 M working solution is as follows:
Dissolve 1 mg of 1,25(OH)2D3 into 480 μl of isopropanol to make 5×10^−3 M stock solution. Store at −70° C. until needed. Aliquot 1 μl of 1.25(OH)2D3 5×10^−3 M stock solution to 499 μl of isopropanol to make 1.25(OH)2D3 10^−5 working solution. Store at −20° C. until needed. […] Induction of HPKIA-ras cells (The day before assay) • When the HPK1A-ras cells were 80-90% confluent, added 1 μL 10^−5 M 1.25(OH)2D3 to 1 mL medium in the plate (final concentration is 10^−8 M). • 2. Preparation of cell suspension • After 18 to 20 hours induction, removed the medium and washed the cell twice with PBS. Then tripsinized the cells from plate, centrifuged (2,000 rpm, 5 min) and suspended cells pellet in DMEM medium+1% BSA. • Counted the cells and adjusted cells density to 250,000/150 μL, added 150 μL cell suspension to each well in 48-well plate (including 3 wells as a no cell control, and 3 well cells without drug or inhibitor as controls). • 3. […] Kept the plate in 37° C. for 10 min. • 4. Preparation of substrate • For each ml required, added 972 μl of DMEM+1% BSA medium, 20 μl of 3H-1,25(OH)2D3, and 8 μl of 100 nM DPPD to a tube and vortexed. • 5. Incubation • Added 25 μL substrate to each well, incubated the plate at 37° C. for 2 hour. • Added 25 μL substrate to counting plate (2 well) as a total count. • 6. Lipid Extraction and Counting • Added 500 μL methanol to each well to stop the reaction, transferred them to tube. • Added 250 μL dichloromethane and vortex. • Added 250 μL dichloromethane and […] saturated KCI, and vortex. • Centrifuged at 4000 rpm for 5 min. • Transferred 100 μL of aqueous phase (upper phase) to counting plastic counting plate. Added 600 μL of scintillation fluid to each well. Counted the plate in scintillation counter. • 7. Calculation Enzyme Activity • CPM of cell control after subtraction of CPM of non-cell control (NCC) was as 100% enzyme activity.
• Dilution of test compounds • Stock 10^−3 M

Q: How did the IC50 (VDR) turn out when `C=C1/C(=C\C=C2/CCC[C@]3(C)[C@@H]([C@H](C)CCS(=N)(=O)c4ccccc4)CC[C@@H]23)C[C@@H](O)C[C@@H]1O` (single isomer, unassigned) [I(a)] was run?
A: Its IC50 is greater than 2000 nM.

Q: And the IC50 (CYP24)?
A: Its IC50 is 5 nM.

Q: What does the source list for `C=C1/C(=C\C=C2/CCC[C@]3(C)[C@@H]([C@H](C)CCS(=O)(=NC)c4ccccc4)CC[C@@H]23)C[C@@H](O)C[C@@H]1O` (single isomer, unassigned) [I(e)]?
A: IC50 (VDR): > 2000 nM; IC50 (CYP24): 66 nM

Q: How did the IC50 (CYP24) turn out when `C=C1/C(=C\C=C2/CCC[C@]3(C)[C@@H]([C@H](C)CCS(=O)(=NC)c4ccccc4)CC[C@@H]23)C[C@@H](O)C[C@@H]1O` (single isomer, unassigned) [I(g)] was run?
A: Its IC50 is 20 nM.

Q: For `C[C@H](CCS(=N)(=O)c1ccccc1)[C@H]1CC[C@H]2/C(=C/C=C3C[C@@H](O)C[C@H](O)C3)CCC[C@]12C` (single isomer, unassigned) [I(i), 24-Phenyl Sulfoximine 19-Nor-Vitamin-D3], which IC50 (VDR) is on record?
A: The IC50 was greater than 2000 nM.
